From PubChem BioAssay (NCI) come the findings set out here.

The structures appear in SMILES notation.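 In this assay, cells in 96-well plates receive the compound at five concentrations for 48 hours. Endpoints are linearly interpolated between the surrounding concentrations. TGI: total growth inhibition.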 Where only a bound is given, the exact number is not on record here.

Some test systems named below: SNB-75 CNS; SW-620 colon; MOLT-4 leukemia; SR leukemia; 786-0 renal; HS 578T breast; NCI-H23 lung; SNB-19 CNS; PC-3 prostate; MDA-N; OVCAR-4 ovarian.
Holding throughout (experiment): inhibition of tumour cell growth, NCI panel, 48 h

On to `COc1cc2c3c(n(C)c(=O)c2cc1OC)-c1cc2c(cc1/C3=C/CCCCBr)OCO2`, for which the TGI with SNB-75 CNS was 96.1 µM; in the test with SW-620 colon, greater than 100 µM; with MOLT-4 leukemia it was greater than 100 µM; in the test with SR leukemia, 15.6 µM; in the test with 786-0 renal it was greater than 100 µM; in the test with HS 578T breast, greater than 100 µM. For the same compound, the TGI in the test with NCI-H23 lung, in the test with SNB-19 CNS, in the test on PC-3 prostate and in the test on MDA-N was greater than 100 µM each time.
With `C(=N/Nc1ccc(-c2nc3ccccc3[nH]2)cc1)/c1c(-c2ccccc2)[nH]c2ccccc12`, the TGI in the test with SNB-75 CNS is 59.9 µM; in the test on SW-620 colon, 75 µM; in the test on MOLT-4 leukemia, greater than 100 µM; with SR leukemia, 17.1 µM; with 786-0 renal it was greater than 100 µM; with HS 578T breast, 0.889 µM. Also, the TGI in the test on NCI-H23 lung is greater than 100 µM; with PC-3 prostate, 3.92 µM; with OVCAR-4 ovarian, greater than 100 µM; in the test on MDA-N, 0.185 µM.
In the case of `COC1OC2COC(C)(C)OC2C2OC(C)(C)OC12` (stereo unspecified), the TGI with SW-620 colon was greater than 100 µM; in the test on MOLT-4 leukemia, 87.9 µM; in the test on 786-0 renal, 52 µM; in the test on HS 578T breast, 50 µM; in the test on NCI-H23 lung, greater than 100 µM; with SNB-19 CNS, 54.4 µM. In addition, the TGI with PC-3 prostate, with OVCAR-4 ovarian and with MDA-N was greater than 100 µM in each case.
Take `O=C(NCCCNCCCCNCCCNC(=O)C(F)(F)F)C(F)(F)F`: the TGI with SNB-75 CNS, in the test with SW-620 colon, in the test with 786-0 renal, in the test on HS 578T breast, in the test on NCI-H23 lung and in the test with PC-3 prostate was greater than 100 µM in each case. Besides, the TGI with OVCAR-4 ovarian and with MDA-N was greater than 100 µM throughout.
As for `O=c1oc2ccccc2c2nc3ccccc3cc12`, the TGI was greater than 100 µM in the test with SW-620 colon; greater than 100 µM in the test on MOLT-4 leukemia; greater than 100 µM with SR leukemia; 80.4 µM in the test on 786-0 renal; 66.7 µM with HS 578T breast; greater than 100 µM in the test on NCI-H23 lung. The TGI in the test on SNB-19 CNS was 70.3 µM; in the test with PC-3 prostate, greater than 100 µM; in the test on OVCAR-4 ovarian it was 47.7 µM; in the test on MDA-N, greater than 100 µM.
For `Cc1cn(C2CC(OC(c3ccccc3)(c3ccccc3)c3ccccc3)C(COC(c3ccccc3)(c3ccccc3)c3ccccc3)O2)c(=O)[nH]c1=O` (stereo unspecified), the TGI with SNB-75 CNS, with SW-620 colon, in the test on MOLT-4 leukemia, in the test on SR leukemia, with 786-0 renal and in the test with HS 578T breast was greater than 100 µM in each case. For the same compound, the TGI in the test on SNB-19 CNS, with PC-3 prostate, in the test with OVCAR-4 ovarian and in the test on MDA-N was greater than 100 µM throughout.
`COc1cc2c(cc1O)CC[n+]1cc3c(OC)c(OC)ccc3cc1-2`: the TGI with SNB-75 CNS, with SW-620 colon, in the test with MOLT-4 leukemia, in the test on 786-0 renal, with HS 578T breast and with NCI-H23 lung was greater than 100 µM throughout. For the same compound, the TGI with SNB-19 CNS, with PC-3 prostate, with OVCAR-4 ovarian and with MDA-N was greater than 100 µM throughout.
On to `O=[N+]([O-])c1ccc2nc3c(nc2c1)-c1c2ccccc2cc2cccc-3c12`, for which the TGI in the test on SW-620 colon was greater than 100 µM; in the test on MOLT-4 leukemia, 31.7 µM; in the test on 786-0 renal, greater than 100 µM; with HS 578T breast, 33 µM; in the test with NCI-H23 lung, 24.5 µM; in the test on SNB-19 CNS, greater than 54.5 µM. The TGI is greater than 66.6 µM in the test on PC-3 prostate, greater than 100 µM with OVCAR-4 ovarian and 47.9 µM in the test on MDA-N.
`Cc1ccsc1C(=S)Nc1ccc(Cl)c(C(=O)OC(C(C)C)C(C)C)c1`: the TGI in the test on SNB-75 CNS is 95.3 µM; in the test on SW-620 colon, 98.8 µM; with MOLT-4 leukemia, 55.6 µM; with 786-0 renal, greater than 100 µM; in the test with HS 578T breast, greater than 100 µM; with NCI-H23 lung, greater than 100 µM. The TGI in the test with SNB-19 CNS was 91.7 µM; in the test on PC-3 prostate, 61.8 µM; with OVCAR-4 ovarian, greater than 100 µM; with MDA-N, greater than 100 µM.
For `COc1cc(-c2c3c(cc4c2OCO4)[C@@H](Nc2ccc4c(c2)Cc2cc(N[C@@H]5c6cc7c(cc6C(c6cc(OC)c(O)c(OC)c6)[C@H]6C(=O)OC[C@H]56)OCO7)ccc2-4)[C@H]2COC(=O)[C@@H]2C3)cc(OC)c1O` (stereo partly specified), the TGI in the test with SNB-75 CNS is greater than 100 µM; with SW-620 colon, greater than 100 µM; in the test on MOLT-4 leukemia it was greater than 100 µM; in the test with SR leukemia, 56.5 µM; with 786-0 renal, 63.7 µM; in the test with HS 578T breast, greater than 100 µM. Further, the TGI was greater than 100 µM with NCI-H23 lung, greater than 100 µM in the test on SNB-19 CNS, 47 µM in the test with PC-3 prostate and 34.3 µM in the test with MDA-N.
On to `Cc1ncc([N+](=O)[O-])n1CCNC(=O)CCCCn1ccnc1[N+](=O)[O-]`, for which the TGI in the test with SNB-75 CNS, in the test on SW-620 colon, in the test on MOLT-4 leukemia, with SR leukemia, in the test with 786-0 renal and in the test on HS 578T breast was greater than 100 µM in each case. The TGI in the test on NCI-H23 lung, in the test on SNB-19 CNS, in the test on PC-3 prostate and with MDA-N was greater than 100 µM in each case.
Regarding `O=C(O)c1cc2ccccc2c(S(=O)(=O)O)c1O`, the TGI with SNB-75 CNS, in the test with SW-620 colon, in the test with MOLT-4 leukemia, in the test with 786-0 renal, in the test on HS 578T breast and in the test on NCI-H23 lung was greater than 100 µM in each case. Besides, the TGI with SNB-19 CNS, in the test with PC-3 prostate, in the test with OVCAR-4 ovarian and in the test on MDA-N was greater than 100 µM in each case.
`O=c1cc(-c2ccccc2F)[nH]c2cc3c(cc12)OCO3`: the TGI in the test on SNB-75 CNS was 17.3 µM; in the test with SW-620 colon, greater than 100 µM; in the test with MOLT-4 leukemia it was greater than 18.3 µM; in the test with SR leukemia, greater than 100 µM; in the test with 786-0 renal it was 28.8 µM; with NCI-H23 lung, 6.8 µM. For the same compound, the TGI in the test with SNB-19 CNS is 6.95 µM; in the test with PC-3 prostate, greater than 100 µM; with OVCAR-4 ovarian, greater than 100 µM; with MDA-N, 0.0396 µM.
